Values after ≈ are worked out from the molar mass of the structure shown. Some results are limits rather than exact numbers.

The text below walks through data of PubChem BioAssay AID1996.

For the data set the following is noted: buffer; pH 7.4; 200.0 µM.
By kinetic solubility is commonly meant the concentration staying in solution when a stock, usually in DMSO, is diluted into the medium. The compound `O=c1nc(/C=C/c2ccc(Cl)cc2Cl)cc(C(F)(F)F)[nH]1` had a solubility (kinetic) of 7.3 µg/mL (≈ 21.8 µM). Then `COc1ccc(Nc2oc(-c3ccccc3F)nc2C#N)cc1`, with less than 0.2 µg/mL; and `COc1cc2c(cc1OC)C(C)N(C(=O)Nc1ccc(F)cc1)CC2` (configuration not stated), with 18.4 µg/mL (≈ 53.4 µM). For `COCc1cc(C)[nH]c(=O)c1C(=O)NC12CC3CC(CC(C3)C1)C2` the value was 9.6 µg/mL (≈ 29.1 µM); for `CCC(C(=O)OCC(=O)NC(=O)NC(C)(C)C)c1ccccc1` (configuration not stated), 2 µg/mL (≈ 6.24 µM); for `O=C(COc1ccc(Cl)cc1)NCCc1ccccn1`, 37.2 µg/mL (≈ 128 µM).

In turn, `CNCCCC12CCC(c3ccccc31)c1ccccc12` gave a kinetic solubility of 38.6 µg/mL (≈ 139 µM). For `COc1ccc(S(=O)(=O)NCc2cccnc2)cc1` the value was more than 41.7 µg/mL. Then `N#Cc1cccnc1N1CCN(C(=O)COCC(=O)O)CC1`, with 41 µg/mL (≈ 135 µM). Consider `CCC(CO)n1c(=S)[nH]c2cc(OC)c(OC)cc2c1=O` (configuration not stated), for which the solubility (kinetic) is more than 46.6 µg/mL. Then `Cc1cccc(-c2noc(CNC(=O)COc3ccccc3C)n2)c1`, with 1.2 µg/mL (≈ 3.56 µM); and `Cc1ccc(/C=N\NC(=O)C2CC(=O)N(c3ccccc3)C2)o1` (configuration not stated), with more than 46.7 µg/mL; and `CCC(C)[C@H](NC(=O)Nc1ccc(S(N)(=O)=O)cc1)C(=O)OC` (some centres not stated), with more than 51.5 µg/mL. `CC(=O)c1c(-c2ccc(Cl)cc2)c2ccccc2[nH]c1=O` registered a solubility (kinetic) of 0.9 µg/mL (≈ 3.02 µM). As to `CC(C)(C)C(=O)N1c2ccccc2CCc2ccccc21`, the kinetic solubility is 28.7 µg/mL (≈ 103 µM). Then `CCCC(=O)Nc1ccc(C=C(C(C)=O)C(C)=O)cc1`, with more than 41 µg/mL; and `N#Cc1c2n(c3c(N)ncnc13)CCCCC2`, with 33.6 µg/mL (≈ 148 µM); and `CCOC(=O)c1sc(=NC(=O)c2cccs2)n(C)c1C`, with less than 0.3 µg/mL. Then `O=C(Nc1ccc(Br)cn1)c1ccc2ccccc2c1`, with less than 0.4 µg/mL; and `CCOC(=O)c1ccc(NC(=O)N2CCc3ccccc3C2)cc1`, with 19.2 µg/mL (≈ 59.2 µM). Consider `C#CC(CC)(CC)NC(=O)c1ccc(Br)s1`, for which the solubility (kinetic) turned out to be 18.6 µg/mL (≈ 62 µM). The solubility kinetic values of the last two compounds are within 1.5-fold of each other.

`Cc1ccnc(NC(=O)CCNC(=O)c2ccc(Cl)cc2)c1` yielded a solubility (kinetic) of 14.9 µg/mL (≈ 46.9 µM). The solubility kinetic values of the last two compounds are within 1.5-fold of each other. For `Cc1cccc(C(=O)NCCCNC(=O)c2ccccn2)c1` the value was more than 44.6 µg/mL; for `CNC(=O)c1sc(-c2cccs2)nc1C`, more than 35.7 µg/mL. `CCOc1ccc(N2C(=O)CC(NCC#N)C2=O)cc1` (configuration not stated) gave a solubility (kinetic) of more than 41 µg/mL.

Compound `Cc1cc(NC(=O)CSc2nnc(-c3ccco3)n2C)no1` came in with a kinetic solubility of more than 47.9 µg/mL. As for `CC(=O)Nc1cccc(C(=O)NCCc2ccco2)c1`, the solubility (kinetic) was more than 40.8 µg/mL. Then `Fc1ccc(Nc2ccnc(C(F)(F)F)c2)cc1`, with 25.7 µg/mL (≈ 100 µM). For `CCN(CC)C(C(=O)NC1CCCCC1)c1ccc(C)cc1` (configuration not stated), the kinetic solubility was more than 45.4 µg/mL.

In turn, `COc1ccc(S(=O)(=O)N2CCOCC2)cc1NC(=O)CC(C)c1ccccc1` (configuration not stated) returned a kinetic solubility of 9.9 µg/mL (≈ 23.7 µM). Then `COc1cc(CN2CCCCCC2)cc(OC)c1OC.O=C(O)C(=O)O`, with more than 55.4 µg/mL. Then `COC(=O)c1cc(S(=O)(=O)N2CCCC2=O)c(Cl)cc1Cl`, with more than 52.8 µg/mL; and `CC(C)c1ccccc1NC(=O)c1ccc2ncsc2c1`, with 21 µg/mL (≈ 70.9 µM). Then `COC1Cc2ccccc2N(C(N)=O)c2ccccc21` (configuration not stated), with more than 40.2 µg/mL. In the case of `Nc1ccc(Oc2c(Cl)cccc2Cl)nc1`, the solubility (kinetic) is more than 38.3 µg/mL. In turn, `COc1cc(NC(c2ccccc2)c2ccccc2)cc(OC)c1OC` registered a kinetic solubility of more than 52.4 µg/mL.

For the compound `CC1CCCCN1Cc1cccnc1.O=C(O)C(=O)O` (configuration not stated), the solubility (kinetic) is more than 42 µg/mL. Then `CCC(=O)Nc1ccc(Cl)c(-c2nc3ncccc3o2)c1`, with more than 45.3 µg/mL. For `CCOc1ccc(C(=O)NC2CCCCCCC2)cc1` the value was 2.5 µg/mL (≈ 9.08 µM). For `COc1ccc2c(c1)c1ncn(Cc3ccccn3)c(=O)c1n2C` the value was 13.6 µg/mL (≈ 42.5 µM).

The compound `Cc1ccc(C(=O)Nc2cccc3cccnc23)cc1C` had a kinetic solubility of less than 0.3 µg/mL. Then `c1ccc(CN2CCOCCOCCOCCOCC2)cc1`, with 43.2 µg/mL (≈ 140 µM); and `O=C(Nc1ccc(F)cc1)Nc1csc2ccccc12`, with 0.5 µg/mL (≈ 1.75 µM). `COCCCn1c(=NC(C)=O)c(C#N)cc2c(=O)n3cccc(C)c3nc21` had a solubility (kinetic) of 52.3 µg/mL (≈ 143 µM). Then `Cc1ccc(S(N)(=O)=O)c(C)c1N1CCCC1=O`, with more than 40.2 µg/mL. `COc1ccccc1C(=O)NCC(=O)N1CC=C(c2ccccc2)CC1` gave a kinetic solubility of 4.5 µg/mL (≈ 12.8 µM). Compound `Cc1[nH]c2ccccc2c1-c1csc(N)n1` had a solubility (kinetic) of 28.1 µg/mL (≈ 123 µM).

As for `Cc1ccc2c(ccc(=S)n2C)c1`, the solubility (kinetic) was 24.1 µg/mL (≈ 127 µM).

As for `NCCCNc1nc(N)c([N+](=O)[O-])c(NC2CCCCC2)n1`, the solubility (kinetic) is more than 46.4 µg/mL.

`Cc1ccccc1C(=O)Nc1c(C)[nH]c(=O)[nH]c1=O` registered a kinetic solubility of more than 38.9 µg/mL.

The compound `Cc1ccc(N2C(=O)CCC2(C(N)=O)c2ccccc2)cc1` (configuration not stated) came in with a kinetic solubility of more than 44.2 µg/mL.

The compound `O=C(Cc1ncc(C(F)(F)F)cc1Cl)NCc1cccnc1` returned a kinetic solubility of more than 49.5 µg/mL.
